Data: patent publication US10774096B2, “4-substituted benzoxaborole compounds and uses thereof” (GLAXOSMITHKLINE INTELLECTUAL PROPERTY (NO.2) LIMITED, priority 2015, dated 2020)
In brackets after ≈: the same amount, converted by molar mass. Several values for one entry are separate records, joined by “and”; a condition that tells them apart may be missing. Equal values may be shown once. Where a name gives a salt, the structure may show the parent alone. Read-outs that look alike come from different tables or passages of the source.

Tests used:
Mtb H37Rv = test: MIC determination against mycobacteria (resazurin); format: cell-based, M. tuberculosis; conditions: for Selectivity Index (A/B): HepG2 Tox50 (A) / Mtb H37Rv MIC (B); for MIC: Mycobacterium tuberculosis, read-out: Mtb H37Rv MIC (B)
HepG2 cells = test: HepG2 cytotoxicity assay (resazurin, 48 h); format: cell-based, human
Description: HepG2 cells (HB-8065) were fed fresh medium (Essential Minimum Eagle Medium, EMEM, supplemented with 5% fetal calf serum and 2 mM L-glutamine) the day before subculturing the plates. On the day of plate seeding, a cell suspension of 100,000 cells/mL in culture medium was prepared. Cell suspension (100 uL) was added in each well of a black 96-well microplate with clear bottom, collagen coated, (Becton Dickinson) except in column 11, that was dispensed only 100 uL of culture medium. The plates were incubated for 24 h. It was made up a range of 10 doses of test substances by preparing serial dilutions 1:2 from the stock solution in 100% DMSO and made a dilution of 1:200 of each dose in medium, to achieve a final concentration of 0.5% of DMSO. After 24 h, culture medium was removed from the plate and 150 uL of test compound dilutions were added in two replicates and 150 uL of 0.5% DMSO in culture medium to columns 11 and 12 (blank control). Plates were incubated for 48 and at 37° C., 5% CO2, 95% relative humidity. The medium was then removed and 200 uL of fresh culture medium was added and 50 uL of Resazurin solution to each well and incubated for 1 h and a half. Plates were removed from incubator to allow the fluorescence to stabilise at room temperature protected from light for 15 min. For read out of viability of cells we used Resazurine (BDH). Resazurin is used as an oxidation-reduction indicator that yields a colorimetric change and a fluorescent signal in response to metabolic activity. As cell grows, metabolic activity results in a chemical reduction of Resazurin indicated by a change from non-fluorescent blue to the reduced fluorescent pink form. The degree of Resazurin fluorescence is therefore, an indicator of the number of viable cells in the culture system. Fluorescence was measured at an excitation wavelength of 515 nm and an emission wavelength of 590 nm in a Microplate reader 1420 Multilabel HTS counter, Victor 2, (Wallac).
The fluorescence value of each well is corrected by subtracting the background value (average of column 11) from the absolute value. The percentages of inhibition are calculated relatively to the DMSO control wells (average of column 12). For each compound, the average value of the duplicate samples is calculated and the curve is fitted to Sigmoidal dose-response (variable slope) nonlinear regression curve adjustment (GraphPad) in order to calculate the IC50 (Tox50).

A. baumannii ATCC 17978 = test: General antimicrobial activity assay (CLSI broth microdilution), MIC; format: cell-based
Description: (§1) Whole-cell antimicrobial activity was determined by broth microdilution using the Clinical and Laboratory Standards Institute (CLSI) recommended procedure, Document M7-A7, “Methods for Dilution Susceptibility Tests for Bacteria that Grow Aerobically”.
(§2) Table 1 provides MIC values against bacterial strains K12; E. coli K12 tolC/Tn10; A. baumannii ATCC 17978; and P. aeruginosa PA01 for comparator compounds (C1-C15) shown in Table 4 and for G26-CH3. […] Similarly, compound G26-CH3 (Example 2) has poor activity against these Gram negative bacteria.

E. coli K12 = test: as above; format: cell-based
Description: as §1, §2

P. aeruginosa PA01 = test: as above; format: cell-based
Description: as §1, §2

E. coli K12 tolC::Tn10 = test: as above; format: cell-based; conditions: efflux pump deficient E. coli
Description: as §1, §2

S. pneumoniae ATCC 6301 = test: as above; format: cell-based
Description: as §1

S. aureus ATCC 29213 = test: as above; format: cell-based; design: unit not given beside the values
Description: as §1

Mtb LeuRS = Mtb LeuRS (Mycobacterium tuberculosis, UniProt P9WFV1); test: LeuRS aminoacylation assay, IC50 determination; format: biochemical, M. tuberculosis
Description: For biochemical analyses an N-terminal six histidine-tagged LeuRS was over-expressed in Escherichia coli which were E. coli codon-optimised (GenScript, Piscataway N.J., USA), from human mitochondria and cytoplasm, and M. tuberculosis. N-terminal six histidine-tagged LeuRS proteins were over-expressed and purified according to Novagen (Madison, Wis., USA) using an E. coli BL21(DE3) T7 RNA polymerase over-expression strain.
Experiments were performed in 96-well microtiter plates, using 80 μL reaction mixtures containing 50 mM HEPES-KOH (pH 8.0), 30 mM MgCl2 30 mM KCl, 13 μM L-[^14C]leucine (306 mCi/mmol, Perkin-Elmer), 15 uM total E. coli tRNA (Roche, Switzerland), 0.02% (w/v) BSA, 1 mM DTT, 0.2 μM LeuRS and 4 mM ATP at 30° C. Reactions were started by the addition of 4 mM ATP. After 7 minutes, reactions were quenched and tRNA was precipitated by the addition of 50 μL of 10% (w/v) TCA and transferred to 96-well nitrocellulose membrane filter plates (Millipore Multiscreen HTS, MSHAN4B50). Each well was then washed three times with 100 μL of 5% TCA. Filter plates were then dried under a heat lamp and the precipitated L-[^14C]leucine tRNALeu were quantified by liquid scintillation counting using a Wallac MicroBeta Trilux model 1450 liquid scintillation counter (PerkinElmer, Waltham, Mass., USA). The only difference was with the human cytoplasmic LeuRS when we used tRNA isolated from Brewer's Yeast (Roche Diagnostics GmbH).
Reactions were initiated by the addition of 4 mM ATP. Reactions were stopped after 7 minutes then precipitated and counted to quantify radioactivity. IC50 values were determined using the Graphpad Prism software package (Graphpad Software Inc. (La Jolla, Calif., USA).

Human cyto LeuRS = Human cyto LeuRS (Homo sapiens, UniProt Q9P2J5); test: LeuRS aminoacylation assay, IC50 determination; format: biochemical; conditions: tRNA from Brewer's Yeast
[1] = tested on: mammalian cellular protein synthesis; test: Inhibition of protein synthesis in mammalian cells; format: cell-based
[2] = tested on: pathogenic Gram negative bacteria; test: General antimicrobial activity assay, summary in words for the panel; format: cell-based
Description: as §1, §2

[3] = M. tuberculosis standard strain H37Rv

Human cyto LeuRS, sequence (Q9P2J5 whole entry): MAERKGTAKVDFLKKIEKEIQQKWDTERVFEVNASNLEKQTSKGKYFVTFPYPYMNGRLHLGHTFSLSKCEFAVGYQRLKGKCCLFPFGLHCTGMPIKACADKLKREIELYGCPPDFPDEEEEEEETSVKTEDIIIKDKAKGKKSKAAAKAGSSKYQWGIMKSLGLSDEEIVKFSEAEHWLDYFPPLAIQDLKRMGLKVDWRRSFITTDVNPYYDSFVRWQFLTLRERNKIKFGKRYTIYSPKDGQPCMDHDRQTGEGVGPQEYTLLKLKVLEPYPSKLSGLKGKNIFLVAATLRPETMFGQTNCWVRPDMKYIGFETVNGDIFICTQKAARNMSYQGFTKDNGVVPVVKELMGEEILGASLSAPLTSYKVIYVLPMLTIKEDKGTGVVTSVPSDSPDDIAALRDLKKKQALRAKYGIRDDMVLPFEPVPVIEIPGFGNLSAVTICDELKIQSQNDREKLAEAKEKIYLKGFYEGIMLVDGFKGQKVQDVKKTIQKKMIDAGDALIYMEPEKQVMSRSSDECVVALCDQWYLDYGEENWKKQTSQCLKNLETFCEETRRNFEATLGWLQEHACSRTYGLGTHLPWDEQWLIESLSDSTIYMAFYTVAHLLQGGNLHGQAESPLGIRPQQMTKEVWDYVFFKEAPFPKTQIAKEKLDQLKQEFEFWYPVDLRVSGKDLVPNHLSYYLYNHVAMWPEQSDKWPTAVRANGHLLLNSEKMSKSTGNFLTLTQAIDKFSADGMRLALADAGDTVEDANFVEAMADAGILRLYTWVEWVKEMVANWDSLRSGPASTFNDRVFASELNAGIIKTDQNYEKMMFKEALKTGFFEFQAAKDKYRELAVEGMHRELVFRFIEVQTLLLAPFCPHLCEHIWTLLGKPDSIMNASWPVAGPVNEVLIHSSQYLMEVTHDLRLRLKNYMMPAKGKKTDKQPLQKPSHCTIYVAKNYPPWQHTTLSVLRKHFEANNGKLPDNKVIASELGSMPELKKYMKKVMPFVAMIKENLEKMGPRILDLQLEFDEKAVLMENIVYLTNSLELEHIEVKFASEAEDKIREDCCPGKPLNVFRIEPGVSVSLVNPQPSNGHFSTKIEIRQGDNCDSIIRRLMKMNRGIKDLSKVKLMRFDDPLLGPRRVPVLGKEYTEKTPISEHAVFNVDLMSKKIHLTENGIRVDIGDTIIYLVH
Mtb LeuRS, sequence (P9WFV1 whole entry): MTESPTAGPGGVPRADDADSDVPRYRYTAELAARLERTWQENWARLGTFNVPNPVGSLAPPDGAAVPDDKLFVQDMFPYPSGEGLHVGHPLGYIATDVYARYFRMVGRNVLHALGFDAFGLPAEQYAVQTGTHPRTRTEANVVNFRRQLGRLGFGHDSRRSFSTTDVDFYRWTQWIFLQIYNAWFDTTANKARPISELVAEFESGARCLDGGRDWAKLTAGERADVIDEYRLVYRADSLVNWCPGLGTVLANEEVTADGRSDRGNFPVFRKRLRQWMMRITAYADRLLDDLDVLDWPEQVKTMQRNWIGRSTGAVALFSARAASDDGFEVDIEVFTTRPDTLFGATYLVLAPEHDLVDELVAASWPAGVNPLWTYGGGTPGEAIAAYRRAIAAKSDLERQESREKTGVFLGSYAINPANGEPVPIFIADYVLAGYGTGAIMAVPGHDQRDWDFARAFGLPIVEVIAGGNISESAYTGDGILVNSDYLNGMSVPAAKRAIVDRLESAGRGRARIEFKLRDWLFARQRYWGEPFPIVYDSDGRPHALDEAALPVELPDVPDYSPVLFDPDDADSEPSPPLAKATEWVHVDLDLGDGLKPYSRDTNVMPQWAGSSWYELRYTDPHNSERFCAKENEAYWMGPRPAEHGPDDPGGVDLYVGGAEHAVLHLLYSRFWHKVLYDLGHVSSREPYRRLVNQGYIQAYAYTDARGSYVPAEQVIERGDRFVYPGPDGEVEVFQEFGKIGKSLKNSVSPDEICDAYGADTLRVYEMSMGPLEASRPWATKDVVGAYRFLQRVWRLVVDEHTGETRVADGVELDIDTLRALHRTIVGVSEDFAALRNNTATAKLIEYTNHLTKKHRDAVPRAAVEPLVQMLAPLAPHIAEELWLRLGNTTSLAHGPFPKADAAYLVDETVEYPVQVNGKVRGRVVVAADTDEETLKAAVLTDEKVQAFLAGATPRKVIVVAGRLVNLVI

CC1(C)COB2OC(CN)c3c(Cl)ccc(c32)O1 (centres unmarked) [Example C9-Cl]
Selectivity Index (A/B) (Mtb H37Rv): >10 | Selectivity Index (A/B) (Mtb H37Rv; listed as C9-CI): 10 | MIC (Mtb H37Rv; H37RV): 5 µM (≈ 1.34 µg/mL) | HepG2 cell 48 h Tox50 (A) (HepG2 cells; human): >50 µM

CC1(C)COB2OC(CN)c3cccc(c32)O1 (centres unmarked) [Example C10-H]
Selectivity Index (A/B) (Mtb H37Rv): 10 | HepG2 cell 48 h Tox50 (A) (HepG2 cells; human): >50 µM

CC1(C)COc2cccc3c2B(OC3CN)O1 (centres unmarked) [Example C12-H]
MIC: A. baumannii ATCC 17978 (A. baumannii ATCC 17978): 4 µg/mL (≈ 17.2 µM) | MIC: E. coli K12 (E. coli K12): 4 µg/mL (≈ 17.2 µM) | MIC: P. aeruginosa PA01 (P. aeruginosa PA01): 16 µg/mL (≈ 68.6 µM) | HepG2 cell 48 h Tox50 (A) (HepG2 cells; human): 24.5 µM

Cc1ccc2c3c1[C@@H](CN)OB3OCCO2 [Example 2, (S)-(3-methyl-7,8-dihydro-2H-1,6,9-trioxa-9a-borabenzo[cd]azulen-2-yl)methanamine]
MIC: A. baumannii ATCC 17978 (A. baumannii ATCC 17978): >64 µg/mL | MIC: E. coli K12 tolC::Tn10 (E. coli K12 tolC::Tn10): >64 µg/mL | MIC: E. coli K12 (E. coli K12): >64 µg/mL | MIC: P. aeruginosa PA01 (P. aeruginosa PA01): >64 µg/mL | MIC: S. pneumoniae ATCC 6301 (S. pneumoniae ATCC 6301): >64 | MIC S. aureus ATCC 29213 (S. aureus ATCC 29213): >64 | IC50 (Mtb LeuRS): 0.53 µM | activity against leucyl tRNA synthetase from M. tuberculosis (Mtb LeuRS): good activity | IC50 (Human cyto LeuRS): 171 µM | Selectivity Index (A/B) (Mtb H37Rv; listed as Example 2 G26-CH3): 4853 and > 4850 | MIC (Mtb H37Rv; H37RV): 0.2 µM (≈ 0.0438 µg/mL) | HepG2 cell 48 h Tox50 (A) (HepG2 cells; human): 971 µM | impact on mammalian cellular protein synthesis [1]: low impact | IC50 ([1]; mammalian cells, read-out: Cell Prot Syn IC50): > 600 µM | activity against Gram negative bacteria [2]: poor activity

CCOc1ccc(Br)c2c1B(O)O[C@@H]2CN [Example C4-Br]
IC50 (Human cyto LeuRS): 73 µM and 67 µM | Selectivity Index (A/B) (Mtb H37Rv): 320 | MIC (Mtb H37Rv; [3]): 0.1 µM (≈ 0.0286 µg/mL) | HepG2 cell 48 h Tox50 (A) (HepG2 cells): 32 µM

CC1COc2cccc3c2B(O1)OC3CN (centres unmarked) [Example C11-H]
MIC: A. baumannii ATCC 17978 (A. baumannii ATCC 17978): 4 µg/mL (≈ 18.3 µM) | MIC: E. coli K12 (E. coli K12): 2 µg/mL (≈ 9.13 µM) | MIC: P. aeruginosa PA01 (P. aeruginosa PA01): 2 µg/mL (≈ 9.13 µM) | MIC (Mtb H37Rv; H37RV): 1.56 µM (≈ 0.342 µg/mL) | HepG2 cell 48 h Tox50 (A) (HepG2 cells; human): > 50 µM | HepG2 cell 48 h, percentage in brackets beside Tox50 (HepG2 cells; meaning of bracket not explained): 40%

NC[C@H]1OB2OCCOc3c(Cl)cc(Cl)c1c32 [Example C14-Cl2]
Selectivity Index (A/B) (Mtb H37Rv): >10 | HepG2 cell 48 h Tox50 (A) (HepG2 cells; human): >50 µM

CCOc1cccc2c1B(O)O[C@@H]2CN [Example C5-H]
Selectivity Index (A/B) (Mtb H37Rv): 3 | MIC (Mtb H37Rv; [3]): 0.6 µM (≈ 0.124 µg/mL) | HepG2 cell 48 h Tox50 (A) (HepG2 cells): 1.8 µM

NC[C@H]1OB2OCCOc3ccc(-c4ccccc4)c1c32 [Example 3, (S)-(3-phenyl-7,8-dihydro-2H-1,6,9-trioxa-9a-borabenzo[cd]azulen-2-yl)methanamine hydrochloride]
IC50 (Mtb LeuRS; read-out: Mtb LeuRS IC50): 12 µM | MIC (Mtb H37Rv; H37RV): 8.75 µM

CCOc1ccc(Cl)c2c1B(O)O[C@@H]2CN [Example C6-Cl]
Selectivity Index (A/B) (Mtb H37Rv): 363 | MIC (Mtb H37Rv; [3]): 0.1 µM (≈ 0.0241 µg/mL) | HepG2 cell 48 h Tox50 (A) (HepG2 cells): 36.3 µM

NCCOc1cccc2c1B(O)OC2 [Example C3-H]
Selectivity Index (A/B) (Mtb H37Rv): >0.8 | MIC (Mtb H37Rv; [3]): 62 µM (≈ 12 µg/mL) | HepG2 cell 48 h Tox50 (A) (HepG2 cells): >50 µM

NC[C@H]1OB2OCCOc3c(Cl)ccc1c32 [Example C13-Cl]
IC50 (Mtb LeuRS; read-out: Mtb LeuRS IC50): 2.16 µM | Selectivity Index (A/B) (Mtb H37Rv): >10 | MIC (Mtb H37Rv; H37RV): 5 µM (≈ 1.2 µg/mL) | HepG2 cell 48 h Tox50 (A) (HepG2 cells; human): >50 µM

CC1COc2c(Cl)cc(Cl)c3c2B(O1)OC3CN (centres unmarked) [Example C7-Cl2]
Selectivity Index (A/B) (Mtb H37Rv): >20 | MIC (Mtb H37Rv; H37RV): 2.5 µM (≈ 0.72 µg/mL) | HepG2 cell 48 h Tox50 (A) (HepG2 cells; human): >50 µM

NC[C@H]1OB2OCCOc3ccc(-c4cccs4)c1c32 [Example 4, (S)-(3-(thiophen-2-yl)-7,8-dihydro-2H-1,6,9-trioxa-9a-borabenzo[cd]azulen-2-yl)methanamine]
IC50 (Mtb LeuRS; read-out: Mtb LeuRS IC50): 300 µM | MIC (Mtb H37Rv; H37RV): 40.1 µM (≈ 11.5 µg/mL)

c1cc2c3c(c1)OCCOB3OC2 [Example C1-H]
MIC (Mtb H37Rv; [3]): 31 µM (≈ 5.46 µg/mL)

CC1(C)COc2c(Cl)ccc3c2B(OC3CN)O1 (centres unmarked) [Example C8-Cl]
Selectivity Index (A/B) (Mtb H37Rv): 10 | HepG2 cell 48 h Tox50 (A) (HepG2 cells; human): >50 µM

NCC1OB2OCCOc3cccc1c32 (racemic) [Example C2-H]
MIC: A. baumannii ATCC 17978 (A. baumannii ATCC 17978): 2 µg/mL (≈ 9.76 µM) | MIC: E. coli K12 (E. coli K12): 2 µg/mL (≈ 9.76 µM) | MIC: P. aeruginosa PA01 (P. aeruginosa PA01): 2 µg/mL (≈ 9.76 µM) | MIC (Mtb H37Rv; H37RV): 1.88 µM (≈ 0.385 µg/mL) | HepG2 cell 48 h Tox50 (A) (HepG2 cells; human): >50 µM
